In series [1] the test system is DG-75 Burkitt’s lymphoma cell line. The following applies: human, 48 h, 10 µM.
In series [2] the test system is MUTU-I Burkitt’s lymphoma cell line. Nature of the series: alamarBlue cell viability assay. The note with it: MUTU-I, 24 h; for viability at 1 µM: read-out: % Viable Cells Remaining MUTU-1, 1 µM, 24 h; for viability at 10 µM: read-out: % Viable Cells Remaining MUTU-1, 10 µM, 24 h.
The subject of series [3] is DG-75 Burkitt’s lymphoma cell line. The series can be described thus: alamarBlue cell viability assay. The note with it: Homo sapiens, DG-75, 48 h; for viability at 1 µM: read-out: % Viable Cells Remaining DG-75, 1 µM, 48 h; for viability at 10 µM: read-out: % Viable Cells Remaining DG-75, 10 µM, 48 h.
A further series has as its system PGA-1 CLL cell line. Nature of the series: alamarBlue cell viability assay. The following applies: CLL cell, 24 h, read-out: % Viability PGA-1, 10 µM, 24 h.
For series [4], the system named is MUTU-I Burkitt’s lymphoma cell line. The note with it: human, 24 h, 10 µM.

The results in this text go back to paper PMC10746112, “Synthesis and Pro-Apoptotic Effects of Nitrovinylanthracenes and Related Compounds in Chronic Lymphocytic Leukaemia (CLL) and Burkitt’s Lymphoma (BL)” (Molecules, 2023).

Some results are limits rather than exact numbers.

In the case of `O=[N+]([O-])C=CCc1c2ccccc2cc2ccccc12` [Compound 20a, 9-(3-Nitroallyl)Anthracene], the “% Viable Cells Remaining DG-75” value in series [1] was 79.71%. Also, the viability at 1 µM is 106% in series [2] and 99.9% in series [3]. In addition, the viability at 10 µM in series [3] is 79 to 97%; in the series with PGA-1 CLL cell line, above 50%.

In the case of `CC(=CCc1c2ccccc2cc2ccccc12)[N+](=O)[O-]` [Compound 20b, 9-(3-Nitrobut-2-en-1-yl)Anthracene], the “% Viable Cells Remaining MUTU-1” value in series [4] worked out at 14.55%. Besides, in series [1], the “% Viable Cells Remaining DG-75” value is recorded as 97.63%. For the same compound, in series [2], the viability at 1 µM turned out to be 105% and the viability at 10 µM was 15 to 40%. Moreover, in series [3], the viability at 1 µM stood at 95.4% and the viability at 10 µM lay within 79 to 97%.

For the compound `CC(=O)/C=C/c1c2ccccc2cc2ccccc12` [Compound 25], in series [4], the “% Viable Cells Remaining MUTU-1” value is on record as 103.2%. In addition, the “% Viable Cells Remaining DG-75” value in series [1] worked out at 100.5%. Also, the viability at 1 µM in series [2] stood at 107%; in series [3] it was 96.3%. For the same compound, the viability at 10 µM in series [2] and in series [3] was above 90% in each case.

Take `c1ccc2c(-c3c[nH]nn3)c3ccccc3cc2c1` [Compound 30a, 4-(anthracen-9-yl)-1H-1,2,3-triazole]: in series [4], the “% Viable Cells Remaining MUTU-1” value is given as 94.5%. Moreover, the “% Viable Cells Remaining DG-75” value in series [1] was found to be 94.86%. In addition, in series [2], the viability at 1 µM amounted to 94.9% and the viability at 10 µM was above 90%. In addition, in series [3], the viability at 1 µM is 104% and the viability at 10 µM is above 90%.

In turn, `Cc1[nH]nnc1-c1c2ccccc2cc2ccccc12` [Compound 30b, 4-(Anthracen-9-yl)-5-Methyl-1H-1,2,3-Triazole] gave a melting point of 231 to 232 °C. In addition, in series [4], the “% Viable Cells Remaining MUTU-1” value turned out to be 107.3%. Further, the “% Viable Cells Remaining DG-75” value in series [1] is listed as 100.6%. In addition, in series [2], the viability at 1 µM came to 108% and the viability at 10 µM is above 90%. In series [3], the viability at 1 µM came out at 96.2% and the viability at 10 µM was above 90%.

For `c1ccc2c(C3CNN=N3)c3ccccc3cc2c1` (stereo not shown) [Compound 31, 4-(Anthracen-9-yl)-4,5-Dihydro-1H-1,2,3-Triazole], the melting point fell in the range of 266 to 268 °C. Further, the “% Viable Cells Remaining MUTU-1” value in series [4] is 103.1%. The “% Viable Cells Remaining DG-75” value in series [1] is on record as 103.1%. For the same compound, in series [2], the viability at 1 µM was 96% and the viability at 10 µM was above 90%. For the same compound, in series [3], the viability at 1 µM was 96% and the viability at 10 µM is above 90%.

In the case of `CN(C)C(=O)c1c2ccccc2cc2ccccc12` [Compound 33b], the melting point was 150 to 152 °C. In series [4], the “% Viable Cells Remaining MUTU-1” value is reported as 90.1%. For the same compound, in series [2], the viability at 1 µM stood at 91.4% and the viability at 10 µM was 90.1%. Also, in series [3], the viability at 1 µM was 96.2% and the viability at 10 µM came out at 75%.

Take `O=C(c1c2ccccc2cc2ccccc12)N1CCCCCC1` [Compound 33c, Anthracen-9-yl(Azepan-1-yl)Methanone]: the melting point lay in the range of 134 to 137 °C. Moreover, in series [4], the “% Viable Cells Remaining MUTU-1” value was found to be 77.4%. Also, in series [2], the viability at 1 µM turned out to be 86.8% and the viability at 10 µM came out at 77.4%. For the same compound, in series [3], the viability at 1 µM is 69.6% and the viability at 10 µM turned out to be 71.6%.

In turn, `O=C(c1c2ccccc2cc2ccccc12)N1CCCC1` [Compound 33d] registered a melting point of 149 to 151 °C. Besides, the “% Viable Cells Remaining MUTU-1” value in series [4] came to 95.6%. Besides, in series [2], the viability at 1 µM is 91.6% and the viability at 10 µM came to 95.6%. For the same compound, in series [3], the viability at 1 µM is 69.4% and the viability at 10 µM was 67.1%.

`O=C(c1c2ccccc2cc2ccccc12)N1CCCCC1` [Compound 33f] displayed a melting point of 181 to 183 °C. In series [4], the “% Viable Cells Remaining MUTU-1” value is given as 84.8%. In series [2], the viability at 1 µM came out at 83.1% and the viability at 10 µM is 84.8%. In addition, in series [3], the viability at 1 µM was 72.5% and the viability at 10 µM was determined as 78.8%.
